Results: PubChem BioAssay AID2060501 (Molecular Pharmacology Branch, DTP, NCI, 2025)
Values joined by “and” are separate entries in the source; they are usually repeats but may differ in a detail not shown here. Equal values may be shown once.

System: 282377-053-R-J1-PDC complex spheroids, viability
Assay: Anticancer human tumor 282377-053-R-J1-PDC patient-derived colon adenocarcinoma cell line growth inhibition [GQUAD]
Details: for viability, T/C: stronger effect = lower value; for IC50: curve of compound
Text: DNA G-quadruplex Stabilizer Agents in Combinations in Complex Spheroids
A high-throughput screen of multi-cell type tumor spheroids was designed to identify active combinations of DNA G-quadruplex stabilizer agents and targeted small molecules. Complex spheroids include a stromal component modeled by human endothelial cells (HUVEC) and fibroblasts modeled by human mesenchymal stem cells (MSCs). The concentration ranges selected for each drug and investigational agent were based upon clinically achievable concentrations if the clinical Cmax of the agent was known.
Compounds. The drugs and investigational agents: pidnarulex (CX-5461; NSC782164), APTO-253 (NSC789042), BRACO-19 (NSC847499), peposertib (NSC802822), ceralasertib (NSC780249), elimusertib (NSC800525), camonsertib (NSC841442), AZD-1390 (NSC803789), olaparib (NSC753686), talazoparib (NSC767125), ART-558 (NSC835418), sotorasib (NSC818433), MRTX-1133 (NSC836407), SN-38 (NSC673596), topotecan (NSC609699), etoposide (NSC141540), doxorubicin (NSC123127), gemcitabine (NSC613327), 5-fluorouracil (NSC19893), paclitaxel (NSC125973), vemurafenib (NSC761431), panobinostat (NSC761190), R-306465 (JNJ-16241199; NSC773264), adavosertib (NSC754352), TP-3654 (NSC805149), carboplatin (NSC241240), KSQ-4279 (NSC840948), and staurosporine (NSC755774) were obtained from the National Cancer Institute (NCI) Developmental Therapeutics Program Chemical Repository (34). The FDA-approved anticancer drug set is available from the NCI Developmental Therapeutics Program. […] The stock solutions were prepared in dimethyl sulfoxide (DMSO, Sigma-Aldrich, St. Louis, MO, cat. D2650) at 800-fold the tested concentration and stored at -70 degrees C prior to their use. All drugs and investigational agents were tested over a range starting from a high concentration at or near the clinical Cmax and decreasing in half-log increments. If the clinical Cmax for an agent had not been determined, the highest concentration tested was 10 microM.
2.3 Cell Culture. All cells were maintained in an incubator at 37 degrees C and 5% CO2 with 95% humidity. The PDC lines were cultured according to standard operating procedures established by the NCI PDMR. All PDCs were thawed and cultured in Matrigel-coated flasks prepared with a working solution of 1X Ham's F-12 nutrient mix, without supplementation (Invitrogen, cat. 11765054), 100 U/mL penicillin-streptomycin (Invitrogen, cat. 15140122), and 2.5% Matrigel (Corning Inc., cat. 354248) for the first three passages. The 857933-349-R-J2-PDC line was cultured in 6C/Colon 1B media, which includes advanced DMEM/F-12 (Thermo Fisher Scientific, cat. 12634028), 10 mM HEPES (Thermo Fisher Scientific, cat. 15630080), 1X GlutaMAX supplement (Thermo Fisher Scientific, cat. 35050061), 0.1 mg/mL primocin (InvivoGen, cat. ant-pm-2), 10% defined fetal bovine serum, heat inactivated (HyClone Laboratories Inc., cat. SH30070.03HI), 50% L-WRN conditioned media (ATCC, cat. CRL-3276), 1.25 mM N-Acetyl-L-cysteine (Sigma-Aldrich, cat. A9165), 10 mM nicotinamide (Sigma-Aldrich, cat. N0636), 1X B-27 supplement (Thermo Fisher Scientific, cat. 17504044), 1X N-2 supplement (Thermo Fisher Scientific, cat. 17502048), 10 microM Y-27632 dihydrochloride (Tocris Bioscience, cat. 1254), and 50 ng/mL human EGF recombinant protein (Thermo Fisher Scientific, cat. PHG0311). The 485176-168-R4-J1-PDC line was cultured in Panc media, which includes all 6C/Colon 1B media components plus 100 ng/mL human FGF-10 (Thermo Fisher Scientific, cat. 100-26), 500 nM SB-431542 (Selleckchem, cat. S1067), and gastrin (Tocris, cat. 3006).
[…]
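Note: spheroids exposed to compounds for 7 days before readout.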
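Throughout, for viability, T/C: percent of vehicle DMSO control viability with 100% = untreated-like growth.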

Compound | IC50 | viability, T/C (compound 0.0316 µM) | viability, T/C (compound 0.1 µM) | viability, T/C (compound 0.316 µM) | viability, T/C (compound 1 µM) | viability, T/C (compound 3.16 µM) | viability, T/C (compound 10 µM) | viability, T/C (compound 0.000999 µM) | viability, T/C (compound 0.00316 µM) | viability, T/C (compound 0.00999 µM) | viability, T/C (compound 0.0999 µM)
C#Cc1c(F)ccc2cc(O)cc(-c3ncc4c(N5CC6CCC(C5)N6)nc(OCC56CCCN5CC(F)C6)nc4c3F)c12 (configuration not stated) | > 10 µM and 2.42 µM | 103% and 112% and 90.1% | 102% and 93.9% and 80.2% | 110% and 81.1% and 95.1% | 86.2% and 90.6% and 93.1% | 101% and 33.1% and 95.4% | 82.8% and 42.6% and 77.7% |  |  |  | 
CC(=O)O[C@H]1C(=O)[C@@]2(C)[C@H]([C@H](OC(=O)c3ccccc3)[C@]3(O)C[C@H](OC(=O)[C@H](O)[C@@H](NC(=O)c4ccccc4)c4ccccc4)C(C)=C1C3(C)C)[C@]1(OC(C)=O)CO[C@@H]1C[C@@H]2O |  | 114% and 62.1% and 42.4% | 98.5% and 13.8% and 13.7% | 89% and 15.7% and 17% | 4.35% and 20.7% and 17.9% | 0.15% and 21.9% and 16.7% |  |  |  |  | 
CC(C)(O)C1CCC(Nc2ccc3ncc(-c4cccc(C(F)(F)F)c4)n3n2)CC1 (configuration not stated) | > 10 µM and 2.38 µM and 1.59 µM | 95.4% and 108% and 93.2% | 77.4% and 81.7% and 98.5% | 107% and 80.8% and 81.9% | 96.5% and 87.1% and 71.6% | 101% and 33.2% and 13.8% | 95% and 42.3% and 22.1% |  |  |  | 
CC1COCCN1c1cc(C2(O)CC3CCC(C2)O3)c2cnn(-c3ccn[nH]3)c2n1 (configuration not stated) | 0.491 µM and 0.478 µM and 0.53 µM | 80.7% and 77.9% and 79.5% | 70% and 87.8% and 83.6% | 61.8% and 55.8% and 62.1% | 33.2% and 34.6% and 34.8% | 24.2% and 20.5% and 35.2% | 16.9% and 16.5% and 24.2% |  |  |  | 
CC1COCCN1c1cc(C2(S(C)(=N)=O)CC2)nc(-c2ccnc3[nH]ccc23)n1 (configuration not stated) | 8.36 µM and > 10 µM | 96.3% and 86.8% and 105% | 101% and 80.1% and 81.3% | 100% and 97.5% and 101% | 62.2% and 81.9% and 77.9% | 86.1% and 70.7% and 78.6% | 42.4% and 60.9% and 49.9% |  |  |  | 
CCCS(=O)(=O)Nc1ccc(F)c(C(=O)c2c[nH]c3ncc(-c4ccc(Cl)cc4)cc23)c1F | 1.89 µM and 4.98 µM and 4.34 µM | 117% and 88.2% and 74.2% | 76.3% and 55.9% and 63.7% | 90.1% and 68.8% and 55.6% | 75.6% and 74.8% and 57.6% | 29.3% and 72.3% and 66.7% | 17.7% and 16.4% and 14.4% |  |  |  | 

Now from value to compound, other results behind:

IC50 | Compound | viability, T/C (compound 0.0316 µM) | viability, T/C (compound 0.1 µM) | viability, T/C (compound 0.316 µM) | viability, T/C (compound 1 µM) | viability, T/C (compound 3.16 µM) | viability, T/C (compound 10 µM) | viability, T/C (compound 0.000999 µM) | viability, T/C (compound 0.00316 µM) | viability, T/C (compound 0.00999 µM) | viability, T/C (compound 0.0999 µM)
> 10 µM | C=CC(=O)N1CCN(c2nc(=O)n(-c3c(C)ccnc3C(C)C)c3nc(-c4c(O)cccc4F)c(F)cc23)C(C)C1 (configuration not stated) | 114% and 108% and 103% | 92.4% and 90.8% and 92.9% | 104% and 91.5% and 93.6% | 91.5% and 93.8% and 96.1% | 105% and 95.6% and 103% | 97.3% and 80.3% and 106% |  |  |  | 
5.01 µM and 1.87 µM and 1.78 µM | C=CCn1c(=O)c2cnc(Nc3ccc(N4CCN(C)CC4)cc3)nc2n1-c1cccc(C(C)(C)O)n1 | 88.3% and 90.1% and 98.2% | 65.9% and 82.6% and 109% | 65.6% and 85.4% and 103% | 66.5% and 75% and 72.4% | 72.8% and 29.1% and 28% | 17.2% and 15.7% and 17.4% |  |  |  | 
> 10 µM | CC(C)n1c(=O)n(C)c2cnc3cc(F)c(-c4ccc(OCCCN5CCCCC5)nc4)cc3c21 | 104% and 100% and 77.6% | 107% and 87.5% and 98.7% | 94.4% and 95.6% and 105% | 94.8% and 106% and 92.8% | 102% and 97.1% and 111% | 113% and 80.3% and 102% |  |  |  | 
0.696 µM and 0.555 µM and 0.247 µM | CC1COCCN1c1cc(-c2ccnn2C)c2ccnc(-c3ccn[nH]3)c2n1 (configuration not stated) | 76.8% and 96.3% and 95.7% | 80.2% and 78.9% and 53% | 61.4% and 49% and 55.4% | 43.9% and 49.3% and 38.2% | 29.3% and 33% and 26.9% | 20.9% and 28.2% and 23.2% |  |  |  | 
> 0.316 µM | CC[C@@]1(O)C(=O)OCc2c1cc1n(c2=O)Cc2cc3c(CN(C)C)c(O)ccc3nc2-1 | 89.3% and 95.4% and 117% |  | 57.4% and 106% and 60.5% |  |  |  | 98.2% and 99.2% and 107% | 92.4% and 87.1% and 103% | 106% and 101% and 87.3% | 84% and 109% and 93.1%
0.0384 µM and 0.178 µM and 0.0546 µM | CCc1c2c(nc3ccc(O)cc13)-c1cc3c(c(=O)n1C2)COC(=O)[C@]3(O)CC | 50.7% and 73% and 63.6% |  | 29.2% and 39% and 30.2% |  |  |  | 87.9% and 100% and 111% | 81.8% and 80.9% and 91% | 67.7% and 93.2% and 67% | 40.8% and 61.3% and 40.1%
